How the values were obtained:
[1] = system: P 388 leukemia; set-up: species or system mice; conditions: mouse, in vivo
[2] = system: L1210 cells; assay: cells; type: cell-based; conditions: Mus musculus, L1210, 48 h, read-out: IC50 (concentration which 50% inhibits the proliferation of the control cells)

SMILES | SURVIVORS 30 days [1] | SURVIVORS 60 days [1] | T/C % (mean survival time test group over untreated control group) [1] | IC50 [2]
CC[C@]1(O)C[C@H]2CN(CCc3c([nH]c4ccccc34)[C@@](C(=O)OC)(c3cc4c(cc3OC)N(C=O)[C@H]3[C@@](O)(C(=O)OC)[C@H](OC(C)=O)[C@]5(CC)C=CCN6CC[C@]43[C@@H]65)C2)C1 [Vincristine, vincristine] | 0/6 | 0/6 | 192% | 4.2 ± 0.7 nM
CC[C@]1(O)C[C@@H]2CN(CCc3c([nH]c4ccccc34)[C@@](C(=O)OC)(c3cc4c(cc3OC)N(C)[C@H]3[C@@](O)(C(=O)OC)[C@H](OC(C)=O)[C@]5(CC)C=CCN6CC[C@]43[C@@H]65)C2)C1 [Vinblastine, vinblastine] | 1/6 | 1/6 | 245% | 2.3 ± 0.5 nM
